Test results from ChEMBL document CHEMBL1136816, “Synthesis and evaluation of ether and halogenated derivatives of mannopeptimycin glycopeptide antibiotics” (2003).
≈ marks a conversion by molar mass, not a printed value.

What was measured:
Assay type in all cases: functional
[1] = system: Streptococcus sp.; assay: In vitro minimum inhibitory concentration against Streptococcus species; 0.5-2
[2] = system: Staphylococcus aureus; assay: In vitro minimum inhibitory concentration against Staphylococcus aureus; 1-8
[3] = system: Enterococcus sp.; assay: In vitro minimum inhibitory concentration against Enterococcus species; 4-32
[4] = system: Enterococcus sp.; assay: In vitro minimum inhibitory concentration against Enterococcus species; 16-32
[5] = system: Streptococcus sp.; assay: In vitro minimum inhibitory concentration against Streptococcus species; 1-16
[6] = system: Staphylococcus aureus; assay: In vitro minimum inhibitory concentration against Staphylococcus aureus; 16-32
[7] = system: Staphylococcus aureus; assay: In vitro minimum inhibitory concentration against Staphylococcus aureus
[8] = system: Staphylococcus aureus; assay: In vitro minimum inhibitory concentration against Staphylococcus aureus; 1-4
[9] = system: Enterococcus sp.; assay: In vitro minimum inhibitory concentration against Enterococcus species; 2-16
[10] = system: Streptococcus sp.; assay: In vitro minimum inhibitory concentration against Streptococcus species; </=0.12-0.5
[11] = system: Staphylococcus aureus; assay: In vitro minimum inhibitory concentration against Staphylococcus aureus; 2-4
[12] = system: Streptococcus sp.; assay: In vitro minimum inhibitory concentration against Streptococcus species; </=0.06-0.12
[13] = system: Enterococcus sp.; assay: In vitro minimum inhibitory concentration against Enterococcus species; 2-4
[14] = system: Staphylococcus aureus; assay: In vitro minimum inhibitory concentration against Staphylococcus aureus; 2-8
[15] = system: Staphylococcus aureus; assay: In vitro minimum inhibitory concentration against Staphylococcus aureus; 0.5-2
[16] = system: Streptococcus sp.; assay: In vitro minimum inhibitory concentration against Streptococcus species
[17] = system: Staphylococcus aureus; assay: In vitro minimum inhibitory concentration against Staphylococcus aureus; 4-8
[18] = system: Enterococcus sp.; assay: In vitro minimum inhibitory concentration against Enterococcus species; 8-16
[19] = system: Enterococcus sp.; assay: In vitro minimum inhibitory concentration against Enterococcus species
[20] = system: Staphylococcus aureus; assay: In vitro minimum inhibitory concentration against Staphylococcus aureus; 1-2
[21] = system: Streptococcus sp.; assay: In vitro minimum inhibitory concentration against Streptococcus species; 0.12-0.5
[22] = system: Streptococcus sp.; assay: In vitro minimum inhibitory concentration against Streptococcus species; 8-32
[23] = system: Enterococcus sp.; assay: In vitro minimum inhibitory concentration against Enterococcus species; 32->64
[24] = system: Staphylococcus aureus; assay: In vitro minimum inhibitory concentration against Staphylococcus aureus; 32-64
[25] = system: Streptococcus sp.; assay: In vitro minimum inhibitory concentration against Streptococcus species; </=0.06-2
[26] = system: Enterococcus sp.; assay: In vitro minimum inhibitory concentration against Enterococcus species; 4-16
[27] = system: Enterococcus sp.; assay: In vitro minimum inhibitory concentration against Enterococcus species; 0.5->64

## CCOc1cc(COCC2O[C@H](O[C@H]3[C@H](O)[C@H](O)[C@@H](Oc4ccc(C[C@H]5NC(=O)[C@H]([C@@H](C)c6ccccc6)NC(=O)CNC(=O)[C@H](CO)NC(=O)[C@@H]([C@@H](O)[C@@H]6CN=C(N)N6[C@H]6O[C@H](CO)[C@@H](O)[C@H](O)[C@@H]6O)NC(=O)[C@H]([C@@H](O)[C@@H]6CN=C(N)N6)NC5=O)cc4)O[C@@H]3CO)[C@@H](O)[C@@H](O)[C@@H]2O)ccc1OC (some centres not stated)
[1]
  MIC: 0.5 µg/mL (≈ 0.343 µM)
[2]
  MIC: 1 µg/mL (≈ 0.685 µM)
[3]
  MIC: 4 µg/mL (≈ 2.74 µM)

## C[C@@H](c1ccccc1)[C@@H]1NC(=O)CNC(=O)[C@H](CO)NC(=O)[C@@H]([C@@H](O)[C@@H]2CN=C(N)N2[C@H]2O[C@H](CO)[C@@H](O)[C@H](O)[C@@H]2O)NC(=O)[C@H]([C@@H](O)[C@@H]2CN=C(N)N2)NC(=O)[C@@H](Cc2ccc(O[C@H]3O[C@H](CO)[C@@H](O[C@H]4O[C@H](CO)[C@@H](OC/C=C/c5ccc(N(C)C)cc5)[C@H](O)[C@@H]4O)[C@H](O)[C@@H]3O)cc2)NC1=O
[4]
  MIC: 16 µg/mL (≈ 11 µM)
[5]
  MIC: 1 µg/mL (≈ 0.688 µM)
[6]
  MIC: 16 µg/mL (≈ 11 µM)

## COc1ccc(COC[C@H]2O[C@H](O[C@H]3[C@H](O)[C@H](O)[C@@H](Oc4ccc(C[C@H]5NC(=O)[C@H]([C@@H](C)c6ccccc6)NC(=O)CNC(=O)[C@H](CO)NC(=O)[C@@H]([C@@H](O)[C@@H]6CN=C(N)N6[C@H]6O[C@H](CO)[C@@H](O)[C@H](O)[C@@H]6O)NC(=O)[C@H]([C@@H](O)[C@@H]6CN=C(N)N6)NC5=O)cc4)O[C@@H]3CO)[C@@H](O)[C@@H](O)[C@@H]2O)cc1
[1]
  MIC: 0.5 µg/mL (≈ 0.353 µM)
[7]
  MIC: 4 µg/mL (≈ 2.83 µM)
[3]
  MIC: 4 µg/mL (≈ 2.83 µM)

## COc1ccc(COC[C@H]2O[C@H](O[C@H]3[C@H](O)[C@H](O)[C@@H](Oc4ccc(C[C@H]5NC(=O)[C@H]([C@@H](C)c6ccccc6)NC(=O)CNC(=O)[C@H](CO)NC(=O)[C@@H]([C@@H](O)[C@@H]6CN=C(N)N6[C@H]6O[C@H](CO)[C@@H](O)[C@H](O)[C@@H]6O)NC(=O)[C@H]([C@@H](O)[C@@H]6CN=C(N)N6)NC5=O)cc4)O[C@@H]3CO)[C@@H](O)[C@@H](O)[C@@H]2O)c2ccccc12
[8]
  MIC: 1 µg/mL (≈ 0.682 µM)
[9]
  MIC: 2 µg/mL (≈ 1.36 µM)
[10]
  MIC: ≤ 0.12 µg/mL

## C[C@@H](c1ccccc1)[C@@H]1NC(=O)CNC(=O)[C@H](CO)NC(=O)[C@@H]([C@@H](O)[C@@H]2CN=C(N)N2[C@H]2O[C@H](CO)[C@@H](O)[C@H](O)[C@@H]2O)NC(=O)[C@H]([C@@H](O)[C@@H]2CN=C(N)N2)NC(=O)[C@@H](Cc2ccc(O[C@H]3O[C@H](CO)[C@@H](O[C@H]4O[C@H](COCc5ccc(Oc6ccccc6)cc5)[C@@H](O)[C@H](O)[C@@H]4O)[C@H](O)[C@@H]3O)cc2)NC1=O
[11]
  MIC: 2 µg/mL (≈ 1.35 µM)
[12]
  MIC: ≤ 0.06 µg/mL
[13]
  MIC: 2 µg/mL (≈ 1.35 µM)

## COc1ccc(COC[C@H]2O[C@H](O[C@H]3[C@H](O)[C@H](O)[C@@H](Oc4ccc(C[C@H]5NC(=O)[C@H]([C@@H](C)c6ccccc6)NC(=O)CNC(=O)[C@H](CO)NC(=O)[C@@H]([C@@H](O)[C@@H]6CN=C(N)N6[C@H]6O[C@H](CO)[C@@H](O)[C@H](O)[C@@H]6O)NC(=O)[C@H]([C@@H](O)[C@@H]6CN=C(N)N6)NC5=O)cc4)O[C@@H]3CO)[C@@H](O)[C@@H](O)[C@@H]2O)cc1F
[1]
  MIC: 0.5 µg/mL (≈ 0.349 µM)
[14]
  MIC: 2 µg/mL (≈ 1.4 µM)
[3]
  MIC: 4 µg/mL (≈ 2.79 µM)

## C[C@@H](c1ccccc1)[C@@H]1NC(=O)CNC(=O)[C@H](CO)NC(=O)[C@@H]([C@@H](O)[C@@H]2CN=C(N)N2[C@H]2O[C@H](CO)[C@@H](O)[C@H](O)[C@@H]2O)NC(=O)[C@H]([C@@H](O)[C@@H]2CN=C(N)N2)NC(=O)[C@@H](Cc2ccc(O[C@H]3O[C@H](CO)[C@@H](O[C@H]4O[C@H](CO)[C@@H](OCc5ccc(OCc6ccccc6)cc5)[C@H](O)[C@@H]4O)[C@H](O)[C@@H]3O)cc2)NC1=O
[15]
  MIC: 0.5 µg/mL (≈ 0.335 µM)
[16]
  MIC: ≤ 0.06 µg/mL
[13]
  MIC: 2 µg/mL (≈ 1.34 µM)

## C[C@@H](c1ccccc1)[C@@H]1NC(=O)CNC(=O)[C@H](CO)NC(=O)[C@@H]([C@@H](O)[C@@H]2CN=C(N)N2[C@H]2O[C@H](CO)[C@@H](O)[C@H](O)[C@@H]2O)NC(=O)[C@H]([C@@H](O)[C@@H]2CN=C(N)N2)NC(=O)[C@@H](Cc2ccc(O[C@H]3O[C@H](CO)[C@@H](O[C@H]4O[C@H](COCC=C(c5ccccc5)c5ccccc5)[C@@H](O)[C@H](O)[C@@H]4O)[C@H](O)[C@@H]3O)cc2)NC1=O
[7]
  MIC: 2 µg/mL (≈ 1.34 µM)
[16]
  MIC: ≤ 0.06 µg/mL
[13]
  MIC: 2 µg/mL (≈ 1.34 µM)

## C[C@@H](c1ccccc1)[C@@H]1NC(=O)CNC(=O)[C@H](CO)NC(=O)[C@@H]([C@@H](O)[C@@H]2CN=C(N)N2[C@H]2O[C@H](CO)[C@@H](O)[C@H](O)[C@@H]2O)NC(=O)[C@H]([C@@H](O)[C@@H]2CN=C(N)N2)NC(=O)[C@@H](Cc2ccc(O[C@H]3O[C@H](CO)[C@@H](O[C@H]4O[C@H](COC/C=C/c5ccccc5)[C@@H](O)[C@H](O)[C@@H]4O)[C@H](O)[C@@H]3O)cc2)NC1=O
[1]
  MIC: 0.5 µg/mL (≈ 0.354 µM)
[17]
  MIC: 4 µg/mL (≈ 2.83 µM)
[18]
  MIC: 8 µg/mL (≈ 5.67 µM)

## C[C@@H](c1ccccc1)[C@@H]1NC(=O)CNC(=O)[C@H](CO)NC(=O)[C@@H]([C@@H](O)[C@@H]2CN=C(N)N2[C@H]2O[C@H](CO)[C@@H](O)[C@H](O)[C@@H]2O)NC(=O)[C@H]([C@@H](O)[C@@H]2CN=C(N)N2)NC(=O)[C@@H](Cc2ccc(O[C@H]3O[C@H](CO)[C@@H](O[C@H]4O[C@H](CO)[C@@H](O)[C@H](O)[C@@H]4O)[C@H](O)[C@@H]3O)c(I)c2)NC1=O
[19]
  MIC: > 128 µg/mL
[7]
  MIC: > 128 µg/mL
[16]
  MIC: > 128 µg/mL

## CCCOc1ccc(COC[C@H]2O[C@H](O[C@H]3[C@H](O)[C@H](O)[C@@H](Oc4ccc(C[C@H]5NC(=O)[C@H]([C@@H](C)c6ccccc6)NC(=O)CNC(=O)[C@H](CO)NC(=O)[C@@H]([C@@H](O)[C@@H]6CN=C(N)N6[C@H]6O[C@H](CO)[C@@H](O)[C@H](O)[C@@H]6O)NC(=O)[C@H]([C@@H](O)[C@@H]6CN=C(N)N6)NC5=O)cc4)O[C@@H]3CO)[C@@H](O)[C@@H](O)[C@@H]2O)cc1
[20]
  MIC: 1 µg/mL (≈ 0.693 µM)
[16]
  MIC: ≤ 0.06 µg/mL
[13]
  MIC: 2 µg/mL (≈ 1.39 µM)

## Cc1ccc(COC[C@H]2O[C@H](O[C@H]3[C@H](O)[C@H](O)[C@@H](Oc4ccc(C[C@H]5NC(=O)[C@H]([C@@H](C)c6ccccc6)NC(=O)CNC(=O)[C@H](CO)NC(=O)[C@@H]([C@@H](O)[C@@H]6CN=C(N)N6[C@H]6O[C@H](CO)[C@@H](O)[C@H](O)[C@@H]6O)NC(=O)[C@H]([C@@H](O)[C@@H]6CN=C(N)N6)NC5=O)cc4)O[C@@H]3CO)[C@@H](O)[C@@H](O)[C@@H]2O)cc1
[7]
  MIC: 2 µg/mL (≈ 1.43 µM)
[21]
  MIC: 0.12 µg/mL (≈ 0.0857 µM)
[13]
  MIC: 2 µg/mL (≈ 1.43 µM)

## C[C@@H](c1ccccc1)[C@@H]1NC(=O)CNC(=O)[C@H](CO)NC(=O)[C@@H]([C@@H](O)[C@@H]2CN=C(N)N2[C@H]2O[C@H](CO)[C@@H](O)[C@H](O)[C@@H]2O)NC(=O)[C@H]([C@@H](O)[C@@H]2CN=C(N)N2)NC(=O)[C@@H](Cc2ccc(O[C@H]3O[C@H](CO)[C@@H](O[C@H]4O[C@H](CO)[C@@H](OCC=C(c5ccccc5)c5ccccc5)[C@H](O)[C@@H]4O)[C@H](O)[C@@H]3O)cc2)NC1=O
[11]
  MIC: 2 µg/mL (≈ 1.34 µM)
[16]
  MIC: ≤ 0.06 µg/mL
[13]
  MIC: 2 µg/mL (≈ 1.34 µM)

## C[C@@H](c1ccccc1)[C@@H]1NC(=O)CNC(=O)[C@H](CO)NC(=O)[C@@H]([C@@H](O)[C@@H]2CN=C(N)N2[C@H]2O[C@H](CO)[C@@H](O)[C@H](O)[C@@H]2O)NC(=O)[C@H]([C@@H](O)[C@@H]2CN=C(N)N2)NC(=O)[C@@H](Cc2ccc(O[C@H]3O[C@H](CO)[C@@H](O[C@H]4O[C@H](COC/C=C/c5ccc(N(C)C)cc5)[C@@H](O)[C@H](O)[C@@H]4O)[C@H](O)[C@@H]3O)cc2)NC1=O
[22]
  MIC: 8 µg/mL (≈ 5.5 µM)
[23]
  MIC: 32 µg/mL (≈ 22 µM)
[24]
  MIC: 32 µg/mL (≈ 22 µM)

## COc1ccc(CO[C@H]2[C@H](O)[C@H](O)[C@@H](O[C@H]3[C@H](O)[C@H](O)[C@@H](Oc4ccc(C[C@H]5NC(=O)[C@H]([C@@H](C)c6ccccc6)NC(=O)CNC(=O)[C@H](CO)NC(=O)[C@@H]([C@@H](O)[C@@H]6CN=C(N)N6[C@H]6O[C@H](CO)[C@@H](O)[C@H](O)[C@@H]6O)NC(=O)[C@H]([C@@H](O)[C@@H]6CN=C(N)N6)NC5=O)cc4)O[C@@H]3CO)O[C@@H]2CO)cc1OCc1ccccc1
[25]
  MIC: ≤ 0.06 µg/mL
[11]
  MIC: 2 µg/mL (≈ 1.31 µM)
[26]
  MIC: 4 µg/mL (≈ 2.63 µM)

## CN[C@H](CC(C)C)C(=O)N[C@H]1C(=O)N[C@@H](CC(N)=O)C(=O)N[C@H]2C(=O)N[C@H]3C(=O)N[C@H](C(=O)N[C@H](C(=O)O)c4cc(O)cc(O)c4-c4cc3ccc4O)[C@H](O)c3ccc(c(Cl)c3)Oc3cc2cc(c3O[C@@H]2O[C@H](CO)[C@@H](O)[C@H](O)[C@H]2O[C@H]2C[C@](C)(N)[C@H](O)[C@H](C)O2)Oc2ccc(cc2Cl)[C@H]1O [VANCOMYCIN]
[27]
  MIC: 0.5 µg/mL (≈ 0.345 µM)
[21]
  MIC: 0.12 µg/mL (≈ 0.0828 µM)
